The values that follow come from publication PMC9652372, “Glycolytic flux control by drugging phosphoglycolate phosphatase” (Nature Communications, 2022).

“And” between values parts separate entries of the source, which are not always exact repeats. Identical values can stand only once.

One data set concerns the target T1, murine PGP (Mus musculus, UniProt Q8CHP8).
T1 sequence (Q8CHP8 1-321): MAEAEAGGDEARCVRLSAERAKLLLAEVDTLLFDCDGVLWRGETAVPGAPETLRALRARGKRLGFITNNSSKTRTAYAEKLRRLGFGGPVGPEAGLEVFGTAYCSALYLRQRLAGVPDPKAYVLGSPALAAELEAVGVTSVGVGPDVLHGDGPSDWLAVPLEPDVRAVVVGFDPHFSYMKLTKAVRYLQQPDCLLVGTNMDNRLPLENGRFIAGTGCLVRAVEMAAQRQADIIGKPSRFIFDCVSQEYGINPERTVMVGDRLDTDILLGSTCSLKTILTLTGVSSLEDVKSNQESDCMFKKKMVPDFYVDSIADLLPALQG
Put plainly: SAR: CP1, CP2 and analogs on PGP phosphatase activity (PG). Format: biochemical. The arrangement: His6 (N, cleaved yes); made in house; host or cells: Escherichia coli BL21 (DE3), pETM11, co-expressed with groES-groEL-tig.

The target in a further data set is T2, NT5C1A (Homo sapiens, UniProt Q9BXI3).
T2 construct: purchased Origene #TP324617
T2 sequence (Q9BXI3 1-368): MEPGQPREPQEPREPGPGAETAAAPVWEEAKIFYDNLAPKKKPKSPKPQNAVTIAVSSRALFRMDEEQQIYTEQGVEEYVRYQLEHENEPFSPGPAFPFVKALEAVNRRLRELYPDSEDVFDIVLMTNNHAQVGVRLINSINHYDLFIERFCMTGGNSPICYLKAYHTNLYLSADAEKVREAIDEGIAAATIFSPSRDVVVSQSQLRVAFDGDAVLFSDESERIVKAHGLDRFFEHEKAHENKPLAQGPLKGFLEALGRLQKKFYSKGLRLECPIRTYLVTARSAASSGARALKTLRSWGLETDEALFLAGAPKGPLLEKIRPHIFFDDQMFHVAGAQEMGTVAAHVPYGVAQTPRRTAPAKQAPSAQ
Put plainly: In vitro phosphatase activity assay, NT5C1A (AMP). Type of data set: biochemical. Particulars: DMSO control = 100, read-out: NT5C1A activity on AMP in presence of CP relative to DMSO controls.

Description for NT5C1A: Purified human NT5C1A (NM_032526, #TP324617) and purified human PHOSPHO1 (NM_178500, #TP314434) were from Origene. […] Data were analyzed with GraphPad Prism 7.04. […] Data are mean values ± S.E.M. of n=3 independent experiments.
Description for murine PGP: However, the DMSO concentration was kept constant across each assay. For SAR experiments, all compound stocks were prepared at 10 mM in 100% DMSO. A constant final DMSO concentration of 0.4% was maintained under all conditions, and solvent control samples contained 0.4% DMSO without compounds.
PGP phosphatase activity were assessed using recombinant, purified murine PGP and PG as a

As to `COc1ccc(C(=O)Nc2ccc(Cc3ccc(NC(=O)c4ccc(OC)c(OC)c4)c(C(=O)O)c3)cc2C(=O)O)cc1OC` [CP2], the “inhibition of mPGP activity at 40 µM CP compared to DMSO control (%)” value against murine PGP (40 µM CP, single experiments Exp #1-3) is 91.3408% and 89.3401% and 90.1099%. In addition, the remaining activity at 16 µM on murine PGP (CP log[M] -4.79588, read-out: mPGP activity in presence of CP relative to DMSO controls, mPGP on PG (norm.)) amounted to 20.6%. Moreover, on murine PGP (CP log[M] -5.39794, read-out: mPGP activity in presence of CP relative to DMSO controls, mPGP on PG (norm.)), the remaining activity at 4 µM was found to be 34.3%. For the same compound, the remaining activity at 2 µM at murine PGP (CP log[M] -5.69897, read-out: mPGP activity in presence of CP relative to DMSO controls, mPGP on PG (norm.)) was determined as 51.6%. The remaining activity at 1 µM on murine PGP (CP log[M] -6, read-out: mPGP activity in presence of CP relative to DMSO controls, mPGP on PG (norm.)) worked out at 67.7%. In addition, the remaining activity at 0.5 µM on murine PGP (CP log[M] -6.30103, read-out: mPGP activity in presence of CP relative to DMSO controls, mPGP on PG (norm.)) stood at 69%. The remaining activity at […] on murine PGP (CP log[M] -6.60206, read-out: mPGP activity in presence of CP relative to DMSO controls, mPGP on PG (norm.)) worked out at 72.6%; at NT5C1A (CP log[M] -5.60206) it was 91.1%. For the same compound, at murine PGP (CP log[M] -6.90309, read-out: mPGP activity in presence of CP relative to DMSO controls, mPGP on PG (norm.)), the remaining activity at 0.125 µM was 81.8%. For the same compound, at murine PGP (CP log[M] -7.20412, read-out: mPGP activity in presence of CP relative to DMSO controls, mPGP on PG (norm.)), the remaining activity at 0.0625 µM was 84.3%. Further, the remaining activity at 0.015625 µM at murine PGP (CP log[M] -7.80618, read-out: mPGP activity in presence of CP relative to DMSO controls, mPGP on PG (norm.)) came out at 96%. Besides, on NT5C1A (CP log[M] -4.30103), the remaining activity at 50 µM was 11.9%. Also, the remaining activity at 40 µM at NT5C1A (CP log[M] -4.39794) came out at 20.5%. Moreover, the remaining activity at 30 µM at NT5C1A (CP log[M] -4.52288) was 33.1%. Moreover, the remaining activity at 25 µM at NT5C1A (CP log[M] -4.60206) amounted to 45.1%. In addition, at NT5C1A (CP log[M] -4.69897), the remaining activity at 20 µM was 62.1%. The remaining activity at 15 µM on NT5C1A (CP log[M] -4.82391) stood at 69%. The remaining activity at 10 µM on NT5C1A (CP log[M] -5) was determined as 74.2%. In addition, on NT5C1A (CP log[M] -5.30103), the remaining activity at 5 µM was found to be 83.9%.
